# Laboratory results published in patent publication US20260284005A1, “INHIBITING MITOGEN-ACTIVATED PROTEIN (MAP)/ERK KINASE (MEK)1 AND MEK2 AND RELATED METHODS OF TREATMENT” (priority 2023, published 2026).
# Legend:
# [1] = tested on: LS411N cells; experiment: 3D-TGA; type: cell-based; conditions: Homo sapiens, LS-411N; LS411N, COL, BRAF V600E; read-out: IC50 in 3D-TGA Encorafenib
# [2] = tested on: A375 cells; experiment: 3D-TGA; type: cell-based; conditions: Homo sapiens, A-375, read-out: IC50 in 3D-TGA Encorafenib
# Experimental: Cells were seeded in 3D cultures in a black-walled, clear-bottom, non-tissue culture treated, 384-well plate (3000 cells per well) using a 1:1 mixture of BME and a custom media and grown in a humidified incubator with 5% CO2 and 5% O2, which approximates capillary levels for each gas, at 37° C. […] Cells were assessed for cell proliferation using EdU cell proliferation staining. […] Cells were permeabilized with 30 μL of filtered 0.5% Triton X-100 in PBS for 20 minutes at room temperature. Samples were washed twice gently with PBS. Cells were stained utilizing click-iT chemistry by adding 20 μL of staining cocktail containing 2 mM copper sulfate, 8 μM sulfo-Cy5-azide, and 20 mg/ml ascorbic acid in PBS and incubated 30-60 minutes at room temperature in dark. […] Plates were imaged with the Molecular Devices Pico ImageXpress. Images were segmented and percentage of cells with EdU incorporation was quantified to calculate antiproliferative effects of the drugs.
# Five (5)-ethynyl-2′-deoxyuridine (EdU) data was represented as percentage EdU positive cells quantified by high content imaging from the Molecular Devices ImageXpress® Pico.
# [3] = tested on: HT-29 cells; experiment: 3D-TGA; type: cell-based, human; conditions: Homo sapiens, HT-29, read-out: IC50 in 3D-TGA Encorafenib
# Summary of the method: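 Cells grown as 3D cultures (3000/well) in 1:1 BME/custom medium at 37° C, 5% CO2, 5% O2. Proliferation measured by EdU incorporation, stained by click chemistry with sulfo-Cy5-azide after Triton X-100 permeabilization. Antiproliferative effect derived from percentage EdU-positive cells by high-content imaging.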
# [4] = tested on: HT-29 BRAF^V600E colorectal cancer xenograft; experiment: HT-29 colorectal xenograft tumor model; type: in vivo, athymic nude mice; conditions: HT-29 BRAFV600E xenograft
# Description: An integrated translational platform with integrated bioinformatics utilized patient-aligned model systems was used to identify key factors that help predict response to Compound A and its unique DCI profile.
smiles,measurement,setting,value
COC(=O)N[C@@H](C)CNc1nccc(-c2cn(C(C)C)nc2-c2cc(Cl)cc(NS(C)(=O)=O)c2F)n1 [encorafenib],IC50,[1],> 1 µM
same,IC50,[2],< 0.05 µM
same,IC50,[3],> 1 µM
same,"tumor growth inhibition, monotherapy",[4],superior tumor growth inhibition to binimetinib
